Among the test systems are A498 renal; CCRF-CEM leukemia; SK-MEL-2 melanoma; 786-0 renal; K-562 leukemia; M14 melanoma; UO-31 renal; NCI-H460 lung; ACHN renal; EKVX NSCLC.
Holding throughout (test): growth of human tumour cells (NCI), 48 h

The structures appear in SMILES notation.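 Five compound concentrations were applied to cells in 96-well plates for 48 hours; endpoints were derived by simple linear interpolation of the resulting dose-response curve. GI50: concentration for 50% inhibition of growth. Definition used: TGI = concentration required for complete inhibition of growth.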 Where a SMILES comes first, the peptide text is derived from it. [ ]: non-standard residue; d: D form. The star is where a group is joined. Phe(4-NO2) = N[CH](Cc1ccc([N+](=O)[O-])cc1)C(=O)O; Boc = CC(C)(C)OC(=O)*; OBn = c1ccc(CO*)cc1

In the case of `Cc1c(C)c(C)c(-n2[nH]c(=O)n(C)c2=O)c(C)c1C`, the TGI with A498 renal, in the assay with CCRF-CEM leukemia, with SK-MEL-2 melanoma, with 786-0 renal, in the assay on K-562 leukemia and in the assay with M14 melanoma was greater than 100 µM in each case. Also, the TGI in the assay with UO-31 renal, with NCI-H460 lung, in the assay with ACHN renal and with EKVX NSCLC was greater than 100 µM each time.
As for `COc1cc2c(cc1C[N+](C)(C)CSc1ccccc1)-c1ccccc1CC2`, the TGI turned out to be 37.9 µM in the assay on A498 renal; 14.3 µM in the assay on CCRF-CEM leukemia; 5.21 µM in the assay with SK-MEL-2 melanoma; 19.6 µM with 786-0 renal; 6.75 µM with K-562 leukemia; 7.95 µM with M14 melanoma. Further, the TGI in the assay on UO-31 renal came to 28.6 µM; in the assay on NCI-H460 lung, 9.43 µM; in the assay with ACHN renal, 28.6 µM; in the assay with EKVX NSCLC, 23.7 µM.
Turning to `CCCCOC(=O)C(=O)C(CCC(=O)c1ccc(C)cc1)C(=O)C=C(C)C` (stereo unspecified), the TGI in the assay with A498 renal, in the assay on CCRF-CEM leukemia, with SK-MEL-2 melanoma, with 786-0 renal, in the assay on K-562 leukemia and with M14 melanoma was greater than 100 µM each time. Also, the TGI in the assay on UO-31 renal, in the assay with NCI-H460 lung, in the assay on ACHN renal and in the assay with EKVX NSCLC was greater than 100 µM throughout.
For `Oc1ccc(Cl)cc1C1=N/C(=N\CN2CCN(C/N=C3/N=C(c4cc(Cl)ccc4O)CC(c4ccccc4)N3)CC2)NC(c2ccccc2)C1` (stereo unspecified), the TGI with A498 renal is greater than 100 µM; in the assay on CCRF-CEM leukemia, greater than 100 µM; with SK-MEL-2 melanoma, greater than 100 µM; with 786-0 renal, 65.4 µM; in the assay on K-562 leukemia it was greater than 100 µM; in the assay on M14 melanoma, greater than 100 µM. Besides, the TGI with UO-31 renal was greater than 100 µM; in the assay on NCI-H460 lung, greater than 100 µM; in the assay with ACHN renal, 75.6 µM; in the assay with EKVX NSCLC it was greater than 100 µM.
Turning to `COc1ccc2c(c1)OC(c1cccnc1)C(c1ccccc1)C2=O` (stereo unspecified), the TGI with A498 renal, in the assay on CCRF-CEM leukemia, in the assay with SK-MEL-2 melanoma, in the assay with 786-0 renal, in the assay with K-562 leukemia and with M14 melanoma was greater than 100 µM each time. In addition, the TGI in the assay with UO-31 renal, in the assay with NCI-H460 lung, in the assay on ACHN renal and in the assay with EKVX NSCLC was greater than 100 µM in each case.
For the molecule `Cc1ccc(F)cc1NC(=O)O/N=C(\Cl)C(C)C`, the TGI in the assay on A498 renal was 40.9 µM; with CCRF-CEM leukemia it was greater than 39.5 µM; with SK-MEL-2 melanoma, 35.4 µM; in the assay on 786-0 renal, 15.7 µM; in the assay on K-562 leukemia, 5.72 µM; in the assay with M14 melanoma it was 12.2 µM. The TGI was 23.2 µM in the assay on UO-31 renal, 86 µM in the assay on NCI-H460 lung, 4.41 µM in the assay with ACHN renal and 15.5 µM with EKVX NSCLC.
For `CCOC/N=C(/N)NC#N`, the TGI in the assay on A498 renal was greater than 100 µM; in the assay with CCRF-CEM leukemia it was greater than 100 µM; in the assay on SK-MEL-2 melanoma, greater than 100 µM; in the assay with 786-0 renal it was 56.2 µM; with K-562 leukemia it was greater than 100 µM; in the assay on M14 melanoma, greater than 100 µM. Moreover, the TGI with UO-31 renal, in the assay with NCI-H460 lung, in the assay on ACHN renal and in the assay with EKVX NSCLC was greater than 100 µM in each case.
Regarding `CC(C)/C(Cl)=N/OC(=O)Nc1ccc(F)c(Cl)c1`, the TGI is 33.3 µM in the assay on A498 renal; greater than 20.2 µM with CCRF-CEM leukemia; 34.2 µM with SK-MEL-2 melanoma; 2.96 µM in the assay on 786-0 renal; greater than 100 µM in the assay with K-562 leukemia; 10.6 µM with M14 melanoma. Further, the TGI in the assay on UO-31 renal stood at 30.4 µM; in the assay on NCI-H460 lung, 35.4 µM; with ACHN renal it was 4.13 µM; in the assay with EKVX NSCLC, 5.17 µM.
Turning to `CCC1C(=O)C[C@H]2[C@@H]3C(O)CC4=CC(=O)CC[C@]4(C)[C@H]3CC[C@]12C` (stereo partly specified), the TGI with A498 renal, in the assay on CCRF-CEM leukemia, in the assay with SK-MEL-2 melanoma, with 786-0 renal, in the assay with K-562 leukemia and in the assay with M14 melanoma was greater than 50 µM throughout. Moreover, the TGI with UO-31 renal, with NCI-H460 lung, in the assay on ACHN renal and in the assay with EKVX NSCLC was greater than 50 µM throughout.
Turning to `c1ccc(CNc2c3c(nc4ccccc24)CCC3)cc1`, the TGI in the assay with A498 renal stood at 31.7 µM; in the assay on CCRF-CEM leukemia, 20.9 µM; in the assay on SK-MEL-2 melanoma, 27.2 µM; with 786-0 renal, 28.5 µM; in the assay on K-562 leukemia it was 26.2 µM; in the assay with M14 melanoma, 27.2 µM. Further, the TGI in the assay with UO-31 renal stood at 25 µM; in the assay on NCI-H460 lung, 25 µM; with ACHN renal, 40.9 µM; in the assay with EKVX NSCLC, 42.9 µM.
Turning to `CCOC(C[Se]CC(OCC)OCC)OCC`, the TGI in the assay with A498 renal is greater than 100 µM; in the assay on CCRF-CEM leukemia, 95.9 µM; with SK-MEL-2 melanoma, greater than 100 µM; in the assay with 786-0 renal, greater than 100 µM; in the assay on K-562 leukemia it was greater than 100 µM; with M14 melanoma, greater than 100 µM. For the same molecule, the TGI with UO-31 renal, with NCI-H460 lung, with ACHN renal and in the assay on EKVX NSCLC was greater than 100 µM throughout.
In the case of `COc1ccc(CCn2cnc3ccccc32)cc1`, the TGI in the assay on A498 renal, in the assay on CCRF-CEM leukemia, in the assay with SK-MEL-2 melanoma, in the assay on 786-0 renal, with K-562 leukemia and in the assay on M14 melanoma was greater than 100 µM throughout. The TGI in the assay with UO-31 renal, with NCI-H460 lung, in the assay with ACHN renal and in the assay with EKVX NSCLC was greater than 100 µM each time.
Turning to `COc1ccc2nc3cc(Cl)ccc3c(NCCCCCC(=O)NC(COc3cnc4c(ccc5cccnc54)c3)COc3cnc4c(ccc5cccnc54)c3)c2c1`, the TGI is 62.8 µM with A498 renal; 12.6 µM with CCRF-CEM leukemia; 41.5 µM with SK-MEL-2 melanoma; 28.1 µM in the assay with 786-0 renal; 13.6 µM in the assay with K-562 leukemia; greater than 100 µM with M14 melanoma. The TGI in the assay with UO-31 renal is greater than 100 µM; with NCI-H460 lung, 23.1 µM; in the assay with ACHN renal, greater than 100 µM; with EKVX NSCLC it was greater than 100 µM.
As for `Cn1ccnc1S/C(=C\C=C(C#N)C#N)c1ccc(Cl)cc1`, the TGI in the assay on A498 renal was 3.16 µM; in the assay on CCRF-CEM leukemia, greater than 11.2 µM; with SK-MEL-2 melanoma, greater than 45.5 µM; in the assay on 786-0 renal it was 5.21 µM; in the assay with K-562 leukemia, 3.41 µM; with M14 melanoma it was 5.02 µM. Moreover, the TGI with UO-31 renal stood at 9.34 µM; in the assay with NCI-H460 lung, 27.2 µM; with ACHN renal, 2.09 µM; with EKVX NSCLC it was 13.1 µM. For the same molecule, in the assay on SK-MEL-2 melanoma, the GI50 was 5.38 µM.
Turning to `Oc1ccc(/C=C\c2nnc(/C=C\c3ccc(O)c(O)c3)s2)cc1O`, the TGI in the assay with A498 renal is 26.2 µM; in the assay on CCRF-CEM leukemia, 2.16 µM; with SK-MEL-2 melanoma it was 40.7 µM; with 786-0 renal it was 38.6 µM; with K-562 leukemia, greater than 27.9 µM; in the assay with M14 melanoma it was 26 µM. Further, the TGI was 7.78 µM with UO-31 renal, 15.6 µM in the assay on NCI-H460 lung, 15.2 µM with ACHN renal and greater than 54.6 µM with EKVX NSCLC.
With `CCC(C)[C@H](NC(=O)N[C@H](C)c1ccccc1)C(=O)OC` (stereo partly specified), the TGI in the assay on A498 renal, in the assay on CCRF-CEM leukemia, in the assay on SK-MEL-2 melanoma, in the assay with 786-0 renal, in the assay on K-562 leukemia and with M14 melanoma was greater than 100 µM throughout. Also, the TGI with UO-31 renal, in the assay on NCI-H460 lung, in the assay with ACHN renal and in the assay with EKVX NSCLC was greater than 100 µM in each case.
Consider `COC(=O)Cc1ccc2c(c1)Sc1ccc(CC(=O)OC)cc1N2C`, for which the TGI in the assay with A498 renal is 99.6 µM; in the assay with CCRF-CEM leukemia it was greater than 95.7 µM; in the assay with SK-MEL-2 melanoma it was greater than 100 µM; with 786-0 renal it was greater than 100 µM; in the assay with K-562 leukemia, greater than 100 µM; in the assay on M14 melanoma, greater than 100 µM. Moreover, the TGI in the assay with UO-31 renal was greater than 58.5 µM; in the assay on NCI-H460 lung, greater than 100 µM; with ACHN renal it was greater than 100 µM; in the assay on EKVX NSCLC, greater than 100 µM.
Consider `N=C(N)SCCON1C(=O)c2ccccc2C1=O`, for which the TGI in the assay on A498 renal, in the assay on CCRF-CEM leukemia, with SK-MEL-2 melanoma, in the assay with 786-0 renal, with K-562 leukemia and with M14 melanoma was greater than 100 µM throughout. The TGI in the assay on UO-31 renal, with NCI-H460 lung, with ACHN renal and with EKVX NSCLC was greater than 100 µM in each case.
With `COc1ccc(N2C=Nn3c(nc4sc(C)c(C)c4c3=O)C2)cc1`, the TGI with A498 renal, in the assay on CCRF-CEM leukemia, in the assay on SK-MEL-2 melanoma, with 786-0 renal, in the assay with K-562 leukemia and in the assay with M14 melanoma was greater than 100 µM throughout. Moreover, the TGI in the assay with UO-31 renal, in the assay with NCI-H460 lung, in the assay on ACHN renal and with EKVX NSCLC was greater than 100 µM throughout.
With `COC(=O)CCC(NC(=O)OC(C)(C)C)C(=O)NC(Cc1ccc([N+](=O)[O-])cc1)C(=O)NCC(=O)OCc1ccccc1` (stereo unspecified) (Boc-Glu(OMe)-[Phe(4-NO2)]-Gly-OBn; configuration not given here), the TGI in the assay with A498 renal, with CCRF-CEM leukemia, in the assay on SK-MEL-2 melanoma, with 786-0 renal, in the assay with K-562 leukemia and in the assay with M14 melanoma was greater than 100 µM each time. Further, the TGI in the assay on UO-31 renal, in the assay on NCI-H460 lung, in the assay with ACHN renal and in the assay with EKVX NSCLC was greater than 100 µM in each case.
With `CCCCCc1cc(OC(=O)c2c(O)cc(OC)cc2CCCCC)cc(O)c1C(=O)O`, the TGI is 35.6 µM in the assay on A498 renal; 47.8 µM in the assay on CCRF-CEM leukemia; 31.6 µM in the assay with SK-MEL-2 melanoma; 30.3 µM with 786-0 renal; greater than 100 µM with K-562 leukemia; 38.1 µM in the assay with M14 melanoma. The TGI came out at 26.6 µM in the assay on UO-31 renal, 31.3 µM in the assay on NCI-H460 lung, 35.9 µM in the assay on ACHN renal and 39.9 µM with EKVX NSCLC.
Regarding `COc1cc(OC)c2c(O)cc(CC(C)O)cc2c1` (stereo unspecified), the TGI in the assay on A498 renal, with CCRF-CEM leukemia, in the assay on SK-MEL-2 melanoma, in the assay with 786-0 renal, with K-562 leukemia and with M14 melanoma was greater than 100 µM in each case. Besides, the TGI in the assay with UO-31 renal, in the assay with NCI-H460 lung, with ACHN renal and with EKVX NSCLC was greater than 100 µM throughout.
As for `CCC(CCCN)Nc1cc(OC)cc2cccnc12` (stereo unspecified), the TGI with A498 renal, in the assay with CCRF-CEM leukemia, in the assay on SK-MEL-2 melanoma, in the assay with 786-0 renal, in the assay on K-562 leukemia and with M14 melanoma was greater than 100 µM each time. Also, the TGI in the assay with UO-31 renal, with NCI-H460 lung, in the assay with ACHN renal and with EKVX NSCLC was greater than 100 µM each time.

The record behind these values is PubChem BioAssay (NCI).
